ChEMBL document CHEMBL4138123, “Design, synthesis and biological evaluation of novel pyrazolochalcones as potential modulators of PI3K/Akt/mTOR pathway and inducers of apoptosis in breast cancer cells” (Eur J Med Chem, 2017)
The source made the active and inactive calls. The rule behind the calls is not given here.

Experiments:
HOP-92 [1] = experiment: Cytotoxicity against human HOP92 cells assessed as cell growth at 100 uM after 48 hrs by sulforhodamine B assay relative to control; format: functional; settings: HOP-92, 48 h, read-out: Activity
MCF7 [2] = experiment: Induction of intrinsic apoptosis in human MCF7 cells assessed as effect on mitochondrial membrane depolarization at 2 uM after 18 hrs by DiOC6 staining-based FACS analysis (reference value: 2%); format: functional
LOX IMVI [3] = experiment: Cytotoxicity against human LOXIMVI cells assessed as cell growth at 0.1 uM after 48 hrs by sulforhodamine B assay relative to control; format: functional; settings: read-out: Activity
CAKI-1 [4] = experiment: Cytotoxicity against human Caki1 cells assessed as cell growth at 100 uM after 48 hrs by sulforhodamine B assay relative to control; format: functional; settings: CAKI-1, 48 h, read-out: Activity
SK-MEL-2 [5] = experiment: Cytotoxicity against human SK-MEL-2 cells assessed as cell growth at 100 uM after 48 hrs by sulforhodamine B assay relative to control; format: functional; settings: SK-MEL-2, 48 h, read-out: Activity
HOP-92 [6] = experiment: Cytotoxicity against human HOP92 cells assessed as cell growth at 1 uM after 48 hrs by sulforhodamine B assay relative to control; format: functional; settings: HOP-92, 48 h, read-out: Activity
HOP-92 [7] = experiment: Cytotoxicity against human HOP92 cells assessed as cell growth at 0.1 uM after 48 hrs by sulforhodamine B assay relative to control; format: functional; settings: HOP-92, 48 h, read-out: Activity
MCF7 [8] = experiment: Downregulation of Akt1 mRNA expression in human MCF7 cells at 2 uM after 48 hrs by qRT-PCR analysis; format: functional, cell-based
MCF7 [9] = experiment: Induction of apoptosis in human MCF7 cells assessed as necrotic cells at 2 uM after 24 hrs by Annexin-V FITC/propidium iodide staining-based FACS analysis (reference value: 0.2%); format: functional
SK-MEL-2 [10] = experiment: Cytotoxicity against human SK-MEL-2 cells assessed as cell growth at 10 uM after 48 hrs by sulforhodamine B assay relative to control; format: functional; settings: SK-MEL-2, 48 h, read-out: Activity
LOX IMVI [11] = experiment: Cytotoxicity against human LOXIMVI cells assessed as cell growth at 100 uM after 48 hrs by sulforhodamine B assay relative to control; format: functional; settings: read-out: Activity
SK-MEL-2 [12] = experiment: Cytotoxicity against human SK-MEL-2 cells assessed as cell growth at 1 uM after 48 hrs by sulforhodamine B assay relative to control; format: functional; settings: SK-MEL-2, 48 h, read-out: Activity
HOP-92 [13] = experiment: Cytotoxicity against human HOP92 cells assessed as cell growth at 0.01 uM after 48 hrs by sulforhodamine B assay relative to control; format: functional; settings: HOP-92, 48 h, read-out: Activity
SK-MEL-2 [14] = experiment: Cytotoxicity against human SK-MEL-2 cells assessed as cell growth at 0.1 uM after 48 hrs by sulforhodamine B assay relative to control; format: functional; settings: SK-MEL-2, 48 h, read-out: Activity
CAKI-1 [15] = experiment: Cytotoxicity against human Caki1 cells assessed as cell growth at 0.01 uM after 48 hrs by sulforhodamine B assay relative to control; format: functional; settings: CAKI-1, 48 h, read-out: Activity
MCF7 [16] = experiment: Cell cycle arrest in human MCF7 cells assessed as accumulation at G0/G1 phase at 2 uM after 48 hrs by flow cytometric analysis (reference value: 34.2%); format: functional
HOP-92 [17] = experiment: Cytotoxicity against human HOP92 cells assessed as cell growth at 10 uM after 48 hrs by sulforhodamine B assay relative to control; format: functional; settings: HOP-92, 48 h, read-out: Activity
LOX IMVI [18] = experiment: Cytotoxicity against human LOXIMVI cells assessed as cell growth at 10 uM after 48 hrs by sulforhodamine B assay relative to control; format: functional; settings: read-out: Activity
LOX IMVI [19] = experiment: Cytotoxicity against human LOXIMVI cells assessed as cell growth at 0.01 uM after 48 hrs by sulforhodamine B assay relative to control; format: functional; settings: read-out: Activity
CAKI-1 [20] = experiment: Cytotoxicity against human Caki1 cells assessed as growth inhibition after 48 hrs by sulforhodamine B assay; format: functional; settings: CAKI-1, 48 h
CAKI-1 [21] = experiment: Cytotoxicity against human Caki1 cells assessed as cell growth at 0.1 uM after 48 hrs by sulforhodamine B assay relative to control; format: functional; settings: CAKI-1, 48 h, read-out: Activity
LOX IMVI [22] = experiment: Cytotoxicity against human LOXIMVI cells assessed as cell growth at 1 uM after 48 hrs by sulforhodamine B assay relative to control; format: functional; settings: read-out: Activity
MCF7 [23] = experiment: Inhibition of PI3K in human MCF7 cells assessed as downregulation of phosphorylated Akt levels at 2 uM after 24 hrs by Western blot analysis; format: cell-based
HOP-92 [24] = experiment: Cytotoxicity against human HOP92 cells assessed as growth inhibition after 48 hrs by sulforhodamine B assay; format: functional; settings: HOP-92, 48 h
MCF7 [25] = experiment: Downregulation of Bcl-2 mRNA expression in human MCF7 cells at 2 uM after 48 hrs by qRT-PCR analysis; format: functional, cell-based
SK-MEL-2 [26] = experiment: Cytotoxicity against human SK-MEL-2 cells assessed as cell growth at 0.01 uM after 48 hrs by sulforhodamine B assay relative to control; format: functional; settings: SK-MEL-2, 48 h, read-out: Activity
MCF7 [27] = experiment: Cell cycle arrest in human MCF7 cells assessed as accumulation at G2/M phase at 2 uM after 48 hrs by flow cytometric analysis (reference value: 8.1%); format: functional
MCF7 [28] = experiment: Downregulation of PI3K protein expression in human MCF7 cells at 2 uM after 24 hrs by Western blot analysis; format: functional, cell-based
CAKI-1 [29] = experiment: Cytotoxicity against human Caki1 cells assessed as cell growth at 1 uM after 48 hrs by sulforhodamine B assay relative to control; format: functional; settings: CAKI-1, 48 h, read-out: Activity

Row | SMILES | Activity (MCF7 [2]) [%] | growth at 0.1 µM (LOX IMVI [3]) [%] | growth at 100 µM (CAKI-1 [4]) [%] | growth at 100 µM (SK-MEL-2 [5]) [%] | Activity (MCF7 [8]) | Activity (MCF7 [9]) [%] | growth at 10 µM (SK-MEL-2 [10]) [%] | growth at 100 µM (LOX IMVI [11]) [%] | growth at 1 µM (SK-MEL-2 [12]) [%] | growth at 0.1 µM (SK-MEL-2 [14]) [%] | growth at 0.01 µM (CAKI-1 [15]) [%] | Activity (MCF7 [16]) [%] | growth at 10 µM (LOX IMVI [18]) [%] | growth at 0.01 µM (LOX IMVI [19]) [%] | LC50 (CAKI-1 [20]) [µM] | TGI (CAKI-1 [20]) [µM] | growth at 0.1 µM (CAKI-1 [21]) [%] | growth at 1 µM (LOX IMVI [22]) [%] | phospho-Akt downregulation (active/inactive) (MCF7 [23]) | Activity (MCF7 [25]) | other results
1 | COc1cc(C(=O)/C=C/c2cc(-c3cc(OC)c(OC)c(OC)c3)n[nH]2)cc(OC)c1OC | 1 | 101 | -94 | -96 | Active | 1.1 | -63 | -95 | 97 | 111 | 91 | 62 | -95 | 102 | 35.5 | 10.9 | 89 | 82 | Active | Active | growth at 100 µM (HOP-92 [1]): -95%; growth at 1 µM (HOP-92 [6]): 1%; growth at 0.1 µM (HOP-92 [7]): 68%; growth at 0.01 µM (HOP-92 [13]): 86%; growth at 10 µM (HOP-92 [17]): -67%; TGI (HOP-92 [24]): 1.02 µM; CC50 (HOP-92 [24]; read-out: LC50 (the source's name)): 5.54 µM; growth at 0.01 µM (SK-MEL-2 [26]): 104%; Activity (MCF7 [27]): 4.96%; Activity (MCF7 [28]): Active; growth at 1 µM (CAKI-1 [29]): 82%
2 | COc1ccc(C(=O)/C=C/c2cc(-c3cc(OC)c(OC)c(OC)c3)n[nH]2)cc1OC | 42 | 92 | -91 | -96 | Active | 0.1 | -81 | -79 | 98 | 91 | 97 | 43.9 | -93 | 92 | 19.4 | 5.46 | 99 | 73 | Active | Active | growth at 0.01 µM (SK-MEL-2 [26]): 86%; Activity (MCF7 [27]): 13.1%; Activity (MCF7 [28]): Active; growth at 1 µM (CAKI-1 [29]): 94%
